Tests used:
Rattus norvegicus [1] = species: Rattus norvegicus; assay: Inhibition of rat glial cell gap junction at the concentration of 50 uM; type: functional
Rattus norvegicus [2] = species: Rattus norvegicus; assay: Tested for inhibition of rat glial cell gap junction at the concentration of 20 uM; type: functional

| Compound | inhibition at 50 µM (Rattus norvegicus [1]) | inhibition at 20 µM (Rattus norvegicus [2]) |
| --- | --- | --- |
| CCCCCCCC/C=C\CCCCCCCC(=O)N(C)C(C)C | 100% | – |
| CCCCCCCC/C=C\CCCCCCCC(=O)N(CCO)CCO | 8% | 0% |
| CCCCCCCC/C=C\CCCCCCCC(=O)O [OLEIC ACID] | 0% | 0% |
| CCCCC/C=C\C/C=C\C/C=C\C/C=C\CCCC(=O)O [ARACHIDONIC ACID] | 0% | 0% |
| CCCCCCCC/C=C\CCCCCCCC(=O)N(CC)CC | 100% | 15% |
| C=CCNC(=O)CCC/C=C\C/C=C\C/C=C\C/C=C\CCCCC | 90% | – |
| CCCCC/C=C\C/C=C\C/C=C\C/C=C\CCCC(N)=O [ARACHIDONAMIDE] | 100% | 90% |
| CCCCC/C=C\C/C=C\C/C=C\C/C=C\CCCC(=O)N1CCCC1 | 100% | – |
| CCCCC/C=C\C/C=C\C/C=C\C/C=C\CCCC(=O)N(CC)CC | 100% | – |
| CCCCC/C=C\C/C=C\C/C=C\C/C=C\CCCC(=O)NCC | 100% | – |
| CCCCC/C=C\C/C=C\C/C=C\C/C=C\CCCC(=O)N(C)C | 100% | – |
| CCCCCCCC/C=C\CCCCCCCC(=O)N(C)OC | 100% | 100% |
| CCCCC/C=C\C/C=C\C/C=C\C/C=C\CCCC(=O)N(CCC)CCC | 10% | – |
| CCCCCCCC/C=C\CCCCCCCC(=O)NC(C)C | 100% | – |
| CCCCCCCC/C=C\CCCCCCCC(=O)N1CCCC1 | 100% | 0% |
| CCCCC/C=C\C/C=C\C/C=C\C/C=C\CCCC(=O)NCCC | 100% | – |
| CCCCC/C=C\C/C=C\C/C=C\C/C=C\CCCC(=O)NCCCC | 10% | – |
| CCCCCCCC/C=C\CCCCCCCC(N)=O [OLEAMIDE] | 100% | 100% |
| C=CCNC(=O)CCCCCCC/C=C\CCCCCCCC | 100% | – |

| Compound | inhibition at 50 µM (Rattus norvegicus [1]) | inhibition at 20 µM (Rattus norvegicus [2]) |
| --- | --- | --- |
| CCCCC/C=C\C/C=C\C/C=C\C/C=C\CCCC(=O)N(C)OC | 100% | – |
| CCCCC/C=C\C/C=C\C/C=C\C/C=C\CCCC(=O)NC | 100% | – |
| CCCCC/C=C\C/C=C\C/C=C\C/C=C\CCCC(=O)NCCO [ANANDAMIDE] | 100% | 35% |
| CCCCCCCC/C=C\CCCCCCCC(=O)NCC | 100% | 50% |
| CCCCCCCC/C=C\CCCCCCCC(=O)NCCCc1ccccc1 | 0% | – |
| CCCCC/C=C\C/C=C\C/C=C\C/C=C\CCCC(=O)NC(C)C | 100% | – |
| CCCCC/C=C\C/C=C\C/C=C\C/C=C\CCCC(=O)NC1CC1 | 100% | – |
| CCCCCCCC/C=C\CCCCCCCC(=O)NCCC | 90% | 50% |
| CCCCCCCC/C=C\CCCCCCCC(=O)NCCCC | 100% | – |
| CCCCC/C=C\C/C=C\C/C=C\C/C=C\CCCC(=O)N(C)C(C)C | 100% | – |
| CCCCCCCC/C=C\CCCCCCCC(=O)NCCCO | 100% | – |
| CCCCCCCC/C=C\CCCCCCCC(=O)NCCO [OLEOYLETHANOLAMIDE] | 100% | 0% |
| CCCCC/C=C\C/C=C\C/C=C\C/C=C\CCCC(=O)N(CCO)CCO | 0% | 0% |
| CCCCCCCC/C=C\CCCCCCCC(=O)NO | 100% | – |
| CCCCCCCC/C=C\CCCCCCCC(=O)NC1CC1 | 100% | – |
| CCCCCCCC/C=C\CCCCCCCC(=O)N(C)C | 100% | 70% |
| CCCCCCCC/C=C\CCCCCCCC(=O)Nc1ccccc1 [OLEIC ACID ANILIDE] | 0% | – |
| CCCCCCCC/C=C\CCCCCCCC(=O)NC | 100% | 70% |

From ChEMBL document CHEMBL1131678, “Arachidonic acid amide inhibitors of gap junction cell-cell communication” (1999)
